Test systems include HCT-116; ACHN; OVCAR-8; UACC-62; OVCAR-5; HOP-92; NCI-H23; Malme-3M; HCC 2998; RXF 393; MOLT-4; CAKI-1; U-251; SR; HL-60; SNB-19; EKVX; HCT-15.
What all share (assay): NCI anticancer screen, dose series, 48 h

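48-hour exposure; five concentrations; linearly interpolated endpoints. GI50: concentration for 50% inhibition of growth.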 Active and inactive are the calls of the source. No stated cut-off is given here; in the data, active = GI50 up to about 1.1 µM and inactive = higher. A value given as a limit tells only on which side of the number the result lay.

In the case of `COC(=O)N1[C@H]2Cc3c(OC)c(C)c(OC)c(OC)c3[C@@H]1/C(=C\c1cc(OC)c(OC)c(C)c1OC)N(Cc1ccccc1)C2=O`, the GI50 with HCT-116 is 35.6 µM (inactive); in the experiment with ACHN, 32.4 µM (inactive); in the experiment with OVCAR-8 it was 32.4 µM (inactive); in the experiment on UACC-62, 56.9 µM (inactive); in the experiment with OVCAR-5, > 100 µM (inactive); in the experiment with HOP-92 it was 7.96 µM (inactive). For the same compound, the GI50 was 75 µM (inactive) in the experiment on NCI-H23; 28.6 µM (inactive) in the experiment with Malme-3M; 8.51 µM (inactive) in the experiment with HCC 2998; > 100 µM (inactive) with RXF 393; 16.1 µM (inactive) with MOLT-4; 34.6 µM (inactive) in the experiment with CAKI-1. The GI50 with U-251 is 27.9 µM (inactive); in the experiment on SR, 7.85 µM (inactive); in the experiment on HL-60, 5.52 µM (inactive); in the experiment on SNB-19, 58.9 µM (inactive); in the experiment with EKVX it was 37.7 µM (inactive).

Regarding `Cn1cnc([N+](=O)[O-])c1Sc1nc2cccnc2[nH]1`, the GI50 with HCT-116 is 90.6 µM (inactive); in the experiment with ACHN, > 100 µM (inactive); with OVCAR-8 it was 86.5 µM (inactive); in the experiment with UACC-62, 67.6 µM (inactive); in the experiment with OVCAR-5, > 100 µM (inactive); in the experiment on HOP-92 it was 83 µM (inactive). Also, the GI50 with NCI-H23 was 88.7 µM (inactive); in the experiment with Malme-3M, > 100 µM (inactive); in the experiment on HCT-15 it was more than 100 µM; in the experiment on HCC 2998, > 100 µM (inactive); in the experiment with RXF 393, 97.5 µM (inactive); in the experiment on MOLT-4, 29.9 µM (inactive). Further, the GI50 with CAKI-1 is 18.3 µM (inactive); in the experiment on U-251, > 100 µM (inactive); with SR, 35.9 µM (inactive); in the experiment with HL-60 it was 12.5 µM (inactive); with SNB-19 it was > 100 µM (inactive); in the experiment on EKVX it was 28.5 µM (inactive).

In the case of `CCCCCCCCCC(=O)Oc1cccc2onc(C)c12`, the GI50 in the experiment with HCT-116, in the experiment with ACHN, in the experiment on OVCAR-8, with UACC-62, in the experiment with OVCAR-5 and in the experiment on HOP-92 was > 100 µM (inactive) each time. In addition, the GI50 in the experiment on NCI-H23 is > 100 µM (inactive); in the experiment on Malme-3M it was > 100 µM (inactive); in the experiment on HCT-15 it was more than 100 µM; in the experiment with HCC 2998, 79.1 µM (inactive); in the experiment on RXF 393 it was > 100 µM (inactive); in the experiment on MOLT-4, 66.8 µM (inactive). Further, the GI50 in the experiment on CAKI-1 was > 100 µM (inactive); in the experiment on U-251, > 100 µM (inactive); in the experiment on SR, 49 µM (inactive); in the experiment on HL-60 it was 19.4 µM (inactive); in the experiment with SNB-19 it was > 100 µM (inactive); in the experiment with EKVX, > 100 µM (inactive).

For `CCOC(=O)C1Oc2ccc([N+](=O)[O-])c3c2C1(O)CCC3` (stereo not given), the GI50 with ACHN, with OVCAR-8, in the experiment with UACC-62, in the experiment with OVCAR-5, in the experiment on HOP-92 and in the experiment with NCI-H23 was > 100 µM (inactive) throughout. Besides, the GI50 in the experiment on Malme-3M is > 100 µM (inactive); with HCT-15, more than 100 µM; in the experiment on HCC 2998, > 100 µM (inactive); in the experiment with RXF 393 it was > 100 µM (inactive); with MOLT-4, > 100 µM (inactive); in the experiment on U-251, > 100 µM (inactive). Further, the GI50 with SR, in the experiment on HL-60, in the experiment on SNB-19 and with EKVX was > 100 µM (inactive) in each case.

Take `CC(C)(C)OC(=O)NC(CO)c1cccc(OCc2ccccc2)c1` (stereo not given): the GI50 in the experiment on HCT-116 was > 65.2 µM (inactive); in the experiment with ACHN, 71.4 µM (inactive); with OVCAR-8 it was > 100 µM (inactive); with UACC-62, 33 µM (inactive); in the experiment on OVCAR-5, > 100 µM (inactive); in the experiment on HOP-92 it was 22.1 µM (inactive). Besides, the GI50 was > 65.5 µM (inactive) in the experiment with NCI-H23; 63 µM (inactive) with Malme-3M; more than 100 µM in the experiment with HCT-15; > 100 µM (inactive) in the experiment with HCC 2998; > 100 µM (inactive) in the experiment with RXF 393; 30.3 µM (inactive) in the experiment with MOLT-4. Further, the GI50 with CAKI-1 is > 100 µM (inactive); with U-251, 94.6 µM (inactive); in the experiment on SR it was 86.3 µM (inactive); in the experiment with HL-60, 13.9 µM (inactive); in the experiment on SNB-19 it was > 81.7 µM (inactive); with EKVX, 8.39 µM (inactive).

Turning to `CC(C)(C)NN=C1C(C)(C)C(=NNC(C)(C)C)C1(C)C`, the GI50 in the experiment on HCT-116, with ACHN, in the experiment on OVCAR-8, in the experiment on UACC-62, with OVCAR-5 and in the experiment with HOP-92 was > 100 µM (inactive) each time. Further, the GI50 in the experiment with NCI-H23 is > 100 µM (inactive); in the experiment on Malme-3M, > 100 µM (inactive); in the experiment on HCT-15 it was more than 100 µM; with HCC 2998, > 100 µM (inactive); in the experiment with RXF 393, > 100 µM (inactive); in the experiment on MOLT-4 it was > 100 µM (inactive). Further, the GI50 in the experiment with CAKI-1, in the experiment on U-251, in the experiment with SR, with HL-60 and in the experiment with SNB-19 was > 100 µM (inactive) throughout.

On to `COC(=O)c1cc(Br)c(Br)n1C`, for which the GI50 with HCT-116, with ACHN, in the experiment with OVCAR-8, with UACC-62, in the experiment on OVCAR-5 and in the experiment with HOP-92 was > 100 µM (inactive) throughout. The GI50 was > 100 µM (inactive) with NCI-H23; > 100 µM (inactive) with Malme-3M; > 100 µM (inactive) in the experiment with HCC 2998; > 100 µM (inactive) in the experiment on RXF 393; 70.3 µM (inactive) with MOLT-4; > 100 µM (inactive) with CAKI-1. In addition, the GI50 in the experiment with U-251 was > 100 µM (inactive); with SR, 33.9 µM (inactive); in the experiment with HL-60, > 100 µM (inactive); in the experiment on SNB-19 it was > 100 µM (inactive); in the experiment on EKVX it was 42.7 µM (inactive).

Turning to `N/C(=N\N=C=C1C(=O)Nc2ccc(F)cc21)NO`, the GI50 was > 100 µM (inactive) in the experiment on HCT-116; 59.8 µM (inactive) in the experiment with ACHN; > 100 µM (inactive) with OVCAR-8; 39.3 µM (inactive) with UACC-62; 65.3 µM (inactive) in the experiment with HOP-92; > 100 µM (inactive) in the experiment with NCI-H23. Also, the GI50 in the experiment on Malme-3M is > 100 µM (inactive); in the experiment on HCT-15, more than 100 µM; in the experiment with HCC 2998, > 100 µM (inactive); in the experiment on RXF 393, > 100 µM (inactive); in the experiment with MOLT-4 it was > 100 µM (inactive); in the experiment with CAKI-1 it was 28 µM (inactive). Further, the GI50 is > 100 µM (inactive) with U-251, > 100 µM (inactive) with SR, 47.5 µM (inactive) in the experiment with HL-60 and 95.5 µM (inactive) in the experiment on EKVX.

As to `N#C/C(=C/c1cccc(Oc2ccccc2)c1)c1ccccc1`, the GI50 with HCT-116 is > 100 µM (inactive); in the experiment on ACHN, > 100 µM (inactive); in the experiment with OVCAR-8, > 100 µM (inactive); with UACC-62 it was > 100 µM (inactive); in the experiment on OVCAR-5, 34.6 µM (inactive); in the experiment with HOP-92, 93.8 µM (inactive). The GI50 in the experiment with NCI-H23 was > 100 µM (inactive); with Malme-3M, > 100 µM (inactive); in the experiment with HCT-15, more than 100 µM; with HCC 2998, > 100 µM (inactive); with MOLT-4 it was > 100 µM (inactive); with CAKI-1, > 100 µM (inactive). For the same compound, the GI50 in the experiment with U-251 is > 100 µM (inactive); with SR it was > 100 µM (inactive); with HL-60, 64.7 µM (inactive); with EKVX, > 100 µM (inactive).

In the case of `CC1CCC(O)C(C(O)CC2CC(=O)N(C)C(=O)C2)C1` (stereo not given), the GI50 in the experiment on HCT-116, with ACHN, with OVCAR-8, in the experiment on UACC-62, in the experiment with OVCAR-5 and with HOP-92 was > 100 µM (inactive) in each case. The GI50 with NCI-H23, in the experiment on Malme-3M, with HCC 2998, in the experiment with RXF 393, in the experiment on MOLT-4 and with CAKI-1 was > 100 µM (inactive) each time. The GI50 in the experiment with U-251, in the experiment on SR, in the experiment with HL-60, in the experiment on SNB-19 and in the experiment on EKVX was > 100 µM (inactive) in each case.

With `Cc1nn2c(=O)n(-c3cccc(-n4nnc5c(-c6ccccc6)c(C)nn5c4=O)c3C)nnc2c1-c1ccccc1`, the GI50 in the experiment with HCT-116 was 15.8 µM (inactive); in the experiment on ACHN, 18.7 µM (inactive); with OVCAR-8, 24.7 µM (inactive); in the experiment on UACC-62, 46.1 µM (inactive); in the experiment on OVCAR-5, > 100 µM (inactive); in the experiment on HOP-92, 55.5 µM (inactive). The GI50 with NCI-H23 was 98.4 µM (inactive); in the experiment on Malme-3M, 14.2 µM (inactive); in the experiment with HCT-15 it was 16.1 µM; in the experiment on HCC 2998, 20.5 µM (inactive); in the experiment on RXF 393 it was 34.6 µM (inactive); in the experiment with MOLT-4, 11.1 µM (inactive). The GI50 with CAKI-1 was 39.4 µM (inactive); in the experiment on U-251, 25.2 µM (inactive); in the experiment on SR, 12.9 µM (inactive); in the experiment with HL-60, 18.2 µM (inactive); in the experiment on SNB-19 it was > 100 µM (inactive); in the experiment on EKVX it was 38.9 µM (inactive).

As to `CC1=C(C#N)C(N)=C2C(C)=C(C#N)C(N)=C12`, the GI50 in the experiment with HCT-116, in the experiment on OVCAR-8, in the experiment with UACC-62, with OVCAR-5, with HOP-92 and with NCI-H23 was > 100 µM (inactive) in each case. The GI50 in the experiment with Malme-3M is > 100 µM (inactive); in the experiment on HCT-15 it was more than 100 µM; with HCC 2998, > 100 µM (inactive); in the experiment on RXF 393 it was > 100 µM (inactive); in the experiment on MOLT-4, > 100 µM (inactive); in the experiment with CAKI-1, > 100 µM (inactive). For the same compound, the GI50 in the experiment on U-251, in the experiment with SR, in the experiment on HL-60, in the experiment with SNB-19 and in the experiment on EKVX was > 100 µM (inactive) throughout.

The record behind these values is ChEMBL document CHEMBL1201862, “PubChem BioAssay data set” (2004).
